Values of other authors, collected in patent US6548645B1, “Immunoassay for 2-oxo-3-hydroxy LSD” (Microgenetics Corporation, priority 1999, dated 2003).

What was measured:
[1] = system: antibodies generated by LSD immunogens (LSD analogs derivatized through N-1 or N-6 conjugated to a carrier); settings: molar ratio; relative to LSD; antibodies of Salamone et al., Bioconjugate Chem 8:896-905 (1997)
[2] = doses as low as
[3] = man; calculated

| SMILES | cross-reactivity [1] | oral dose causing central nervous system disturbances (hallucinations, distortions in sensory perception, mood changes) [2] | plasma half-life [3] |
| --- | --- | --- | --- |
| CCN(CC)C(=O)C1C=C2c3cccc4c3C(O)(CC2N(C)C1)C(=O)N4 (stereo not drawn) [2PATENT -oxo-3-hydroxy-LSD, 2-oxo-3-hydroxy-LSD] | 30-45% |  |  |
| CCN(CC)C(=O)[C@@H]1C=C2c3cccc4[nH]cc(c34)C[C@H]2N(C)C1 [LSD] |  | ≥ 25 µg | about 3 hours |
